Measured values taken from paper PMC6857051, “Proliferative regulation of alveolar epithelial type 2 progenitor cells by human Scnn1d gene” (Theranostics, 2019).

Assays:
[1] = target: T1, δ802αβγ-ENaC (Homo sapiens, UniProt P51168+P51170); experiment: Two-electrode voltage clamp of δ802αβγ-ENaC expressed in Xenopus oocytes; format: cell-based
T1 construct: We characterized full-length human δ802-ENaC expressed in both Xenopus oocytes and humanized transgenic mice; expressed in transfected cells; host or cells: Xenopus laevis oocytes injected with cRNA (pGEM HE vector)
T1 sequence (P51168 1-640): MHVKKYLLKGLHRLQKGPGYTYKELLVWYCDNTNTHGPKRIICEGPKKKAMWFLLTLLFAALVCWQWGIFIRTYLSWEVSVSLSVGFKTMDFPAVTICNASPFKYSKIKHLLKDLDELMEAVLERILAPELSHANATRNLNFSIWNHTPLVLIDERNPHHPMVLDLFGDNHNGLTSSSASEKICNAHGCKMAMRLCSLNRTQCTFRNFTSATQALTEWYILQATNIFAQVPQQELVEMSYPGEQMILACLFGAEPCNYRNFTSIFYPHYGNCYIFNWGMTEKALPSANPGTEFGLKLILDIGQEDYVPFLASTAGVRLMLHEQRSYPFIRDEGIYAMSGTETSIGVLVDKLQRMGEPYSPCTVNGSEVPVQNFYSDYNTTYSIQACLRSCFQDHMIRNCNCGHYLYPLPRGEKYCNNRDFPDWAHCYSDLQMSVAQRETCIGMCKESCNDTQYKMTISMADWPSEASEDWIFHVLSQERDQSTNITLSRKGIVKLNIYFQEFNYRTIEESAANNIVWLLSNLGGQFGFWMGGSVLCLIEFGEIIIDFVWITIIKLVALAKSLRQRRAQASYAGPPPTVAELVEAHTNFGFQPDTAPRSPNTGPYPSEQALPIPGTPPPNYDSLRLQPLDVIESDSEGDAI
T1 sequence (P51170 1-649): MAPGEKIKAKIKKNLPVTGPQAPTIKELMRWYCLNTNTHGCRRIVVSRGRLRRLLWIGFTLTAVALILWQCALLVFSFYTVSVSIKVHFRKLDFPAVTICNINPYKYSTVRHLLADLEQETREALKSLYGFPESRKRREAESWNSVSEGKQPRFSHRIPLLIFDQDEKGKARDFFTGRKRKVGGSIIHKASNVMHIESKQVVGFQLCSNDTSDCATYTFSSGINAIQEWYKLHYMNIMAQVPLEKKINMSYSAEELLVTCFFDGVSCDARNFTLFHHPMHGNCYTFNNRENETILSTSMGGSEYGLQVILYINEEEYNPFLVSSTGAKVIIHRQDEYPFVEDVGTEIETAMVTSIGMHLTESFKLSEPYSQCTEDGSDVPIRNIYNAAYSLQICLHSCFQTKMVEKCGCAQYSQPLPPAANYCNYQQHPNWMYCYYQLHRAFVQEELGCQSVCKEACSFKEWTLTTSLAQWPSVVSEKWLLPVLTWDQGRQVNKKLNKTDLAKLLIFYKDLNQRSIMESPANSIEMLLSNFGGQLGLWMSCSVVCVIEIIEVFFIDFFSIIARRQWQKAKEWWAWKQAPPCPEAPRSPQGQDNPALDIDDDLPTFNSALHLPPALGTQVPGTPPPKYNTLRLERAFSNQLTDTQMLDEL
Protocol: (§1) Cloning, in vitro transcription, and heterologous expression of δ802 ENaC and two-electrode voltage clamping assay. δ802 and other ENaC subunits were generated in human ENaC cDNAs cloned into a pGEM HE vector [4], [76]. cRNAs of human α, β, and γ ENaC were prepared as described previously. The stoichiometry of native ENaC complexes is unclear to date. Based on the studies in the last decade, several models have been proposed for αβγ ENaC channels: 1α1β1γ, 2α1β1γ, 3α3β3γ. Based on the EM structure of human αβγ ENaC [35], the currently acceptable model of human αβγ ENaC complexes is heterotrimeric (1α1β1γ). Thus we microinjected δ802:β:γ in a 1:1:1 subunit ratio. Oocytes were surgically removed from appropriately anesthetized adult female Xenopus laevis (Xenopus Express). Briefly, the ovarian tissue was removed from the frog under anesthesia by tricaine-S (Western Chemicals) through a small incision in the lower abdomen. Ovarian lobes were removed and digested in OR-2 calcium-free medium (in mM: 82.5 NaCl, 2.5 KCl, 1.0 MgCl2, 1.0 Na2HPO4, and 10.0 HEPES, pH 7.5) with the addition of 2 mg/ml collagenase (Roche, Indianapolis). Defolliculated oocytes were injected with ENaC cRNAs into the cytosol (25 ng per oocyte in 50 nl of RNase-free water) and incubated in regular OR-2 medium at 18°C. The two-electrode voltage-clamp technique was used to record whole-cell currents 48 h post injection. Oocytes were impaled with two electrodes filled with 3M KCl, having resistance of 0.5 - 2 MΩ. A TEV-200A voltage-clamp amplifier (Dagan) was used to clamp oocytes with concomitant recording of currents. Two reference electrodes were connected to the bath. The continuously perfused bathing solution was ND-96 medium (in mM: 96.0 NaCl, 1.0 MgCl2, 1.8 CaCl2, 2.5 KCl, and 5.0 HEPES, pH 7.5). Whole-cell currents were recorded as previously reported. Experiments were controlled by pCLAMP 10.7 software (Molecular Devices), and currents at -40 mV, -100 mV, and +80 mV were continuously monitored with data recorded at intervals of 10 sec. Data were sampled at the rate of 200 Hz and filtered at 50 Hz.

[2] = target: T2, human αβγ-ENaC (Homo sapiens, UniProt P37088+P51168+P51170); experiment: Two-electrode voltage clamp of αβγ-ENaC expressed in Xenopus oocytes; format: cell-based
T2 construct: expressed in transfected cells; host or cells: Xenopus laevis oocytes injected with cRNA (pGEM HE vector)
T2 sequence (P37088 1-669): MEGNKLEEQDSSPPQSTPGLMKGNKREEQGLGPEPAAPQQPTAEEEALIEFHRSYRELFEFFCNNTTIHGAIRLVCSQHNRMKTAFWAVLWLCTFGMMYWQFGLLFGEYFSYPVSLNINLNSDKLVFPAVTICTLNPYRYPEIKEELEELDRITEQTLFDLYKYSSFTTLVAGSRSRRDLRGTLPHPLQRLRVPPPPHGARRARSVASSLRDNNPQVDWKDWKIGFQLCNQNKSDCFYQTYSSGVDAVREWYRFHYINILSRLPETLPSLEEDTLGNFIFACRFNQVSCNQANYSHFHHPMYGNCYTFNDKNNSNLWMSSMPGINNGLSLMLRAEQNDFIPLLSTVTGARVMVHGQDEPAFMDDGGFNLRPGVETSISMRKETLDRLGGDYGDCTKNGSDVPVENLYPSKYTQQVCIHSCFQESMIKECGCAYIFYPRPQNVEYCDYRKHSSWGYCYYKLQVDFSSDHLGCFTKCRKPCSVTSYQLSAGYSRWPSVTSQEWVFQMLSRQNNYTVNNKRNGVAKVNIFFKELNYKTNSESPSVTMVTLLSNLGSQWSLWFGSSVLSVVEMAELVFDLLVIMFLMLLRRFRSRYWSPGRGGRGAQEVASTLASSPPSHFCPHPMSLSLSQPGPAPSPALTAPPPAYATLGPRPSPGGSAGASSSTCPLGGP
T2 sequence (P51168 1-640): T1 sequence (P51168 1-640)
T2 sequence (P51170 1-649): T1 sequence (P51170 1-649)
Protocol: as §1

[3] = oocytes pre-treated, currents at -100 mV, n=5, Figure 3D

N=C(N)NC(=O)c1nc(Cl)c(N)nc1N [amiloride]
inhibition of the α-13 peptide-resistant remaining fraction of current amplitude ([1]; amiloride 10 μM after α-13 300 μM, δαβγ-ENaC, -100 mV): approximately 80%

Ac-LRGTLPHPLQRLR-NH2 [α-13 peptide]
fraction of total δαβγ-ENaC activity suppressed ([1]; α-13 300 μM, -100 mV, n=5, Figure 2B): Approximately half
α-13 inhibitable fraction of αβγ-ENaC channels after plasmin / aprotinin pre-treatment ([2]; n=8, Figure 3E): not significantly affected by fibrinolytic activity
IC50 ([2]; oocytes, current at -100 mV, n=4, Chi^2 = 0.44, R^2 = 0.993, read-out: IC50 on αβγ-ENaC channels (Hill equation)): 0.1 ± 0.01 µM
inhibition of human αβγ-ENaC current ([2]; α-13 300 μM compared with amiloride 10 μM, -100 mV, subsequent amiloride did not reduce activity further): same efficacy as amiloride

B1: plasmin: serine protease of the plasmin(ogen) signal pathway for fibrinolysis (protein, UniProt P00747 20-580; P00747 581-810, looked up)
Plasmin heavy chain A: EPLDDYVNTQGASLFSVTKKQLGAGSIEECAAKCEEDEEFTCRAFQYHSKEQQCVIMAENRKSSIIIRMRDVVLFEKKVYLSECKTGNGKNYRGTMSKTKNGITCQKWSSTSPHRPRFSPATHPSEGLEENYCRNPDNDPQGPWCYTTDPEKRYDYCDILECEEECMHCSGENYDGKISKTMSGLECQAWDSQSPHAHGYIPSKFPNKNLKKNYCRNPDRELRPWCFTTDPNKRWELCDIPRCTTPPPSSGPTYQCLKGTGENYRGNVAVTVSGHTCQHWSAQTPHTHNRTPENFPCKNLDENYCRNPDGKRAPWCHTTNSQVRWEYCKIPSCDSSPVSTEQLAPTAPPELTPVVQDCYHGDGQSYRGTSSTTTTGKKCQSWSSMTPHRHQKTPENYPNAGLTMNYCRNPDADKGPWCFTTDPSVRWEYCNLKKCSGTEASVVAPPPVVLLPDVETPSEEDCMFGNGKGYRGKRATTVTGTPCQDWAAQEPHRHSIFTPETNPRAGLEKNYCRNPDGDVGGPWCYTTNPRKLYDYCDVPQCAAPSFDCGKPQVEPKKCPGR
Plasmin light chain B: VVGGCVAHPHSWPWQVSLRTRFGMHFCGGTLISPEWVLTAAHCLEKSPRPSSYKVILGAHQEVNLEPHVQEIEVSRLFLEPTRKDIALLKLSSPAVITDKVIPACLPSPNYVVADRTECFITGWGETQGTFGAGLLKEAQLPVIENKVCNRYEFLNGRVQSTELCAGHLAGGTDSCQGDSGGPLVCFEKDKYILQGVTSWGLGCARPNKPGVYVRVSRFVTWIEGVMRNN
modifications: Plasmin
notes: serine protease of the plasmin(ogen) signal pathway for fibrinolysis
effect of pre-treatment on δ802αβγ-ENaC activity [1, 3]: potentiated
effect of pre-treatment on αβγ-ENaC activity [2, 3]: potentiated
